Assays:
[1] = Dynamic Vapour Sorption (DVS); type: physicochemical
Description: Sorption isotherms were obtained using a Hiden Isochema moisture sorption analyser (IGAsorp Systems Firmware V20.19.005 COM3) and operated by Isochema Hlsorp 2019 V4.02.0102. The sample was maintained at a constant temperature (25° C.) by the instrument controls. The humidity was controlled by mixing streams of dry and wet nitrogen, with a total flow of 250 ml.min-1. The weight change of the sample was monitored as a function of humidity by a microbalance (accuracy +/− 0.001 mg).
A defined amount of sample was placed in a tared mesh stainless steel basket under ambient conditions. A typical experimental run consisted of three cycles (desorption, sorption, desorption, sorption, desorption and sorption) at a constant temperature (25° C.) and 10% RH intervals over a 0-90% RH range (60 minutes for each humidity level).
This is to obtain in-depth profiling of the material towards humidity at these elevated levels.

hERG = hERG (Homo sapiens, UniProt Q12809); assay: in vitro
Sequence of hERG (Q12809 whole entry): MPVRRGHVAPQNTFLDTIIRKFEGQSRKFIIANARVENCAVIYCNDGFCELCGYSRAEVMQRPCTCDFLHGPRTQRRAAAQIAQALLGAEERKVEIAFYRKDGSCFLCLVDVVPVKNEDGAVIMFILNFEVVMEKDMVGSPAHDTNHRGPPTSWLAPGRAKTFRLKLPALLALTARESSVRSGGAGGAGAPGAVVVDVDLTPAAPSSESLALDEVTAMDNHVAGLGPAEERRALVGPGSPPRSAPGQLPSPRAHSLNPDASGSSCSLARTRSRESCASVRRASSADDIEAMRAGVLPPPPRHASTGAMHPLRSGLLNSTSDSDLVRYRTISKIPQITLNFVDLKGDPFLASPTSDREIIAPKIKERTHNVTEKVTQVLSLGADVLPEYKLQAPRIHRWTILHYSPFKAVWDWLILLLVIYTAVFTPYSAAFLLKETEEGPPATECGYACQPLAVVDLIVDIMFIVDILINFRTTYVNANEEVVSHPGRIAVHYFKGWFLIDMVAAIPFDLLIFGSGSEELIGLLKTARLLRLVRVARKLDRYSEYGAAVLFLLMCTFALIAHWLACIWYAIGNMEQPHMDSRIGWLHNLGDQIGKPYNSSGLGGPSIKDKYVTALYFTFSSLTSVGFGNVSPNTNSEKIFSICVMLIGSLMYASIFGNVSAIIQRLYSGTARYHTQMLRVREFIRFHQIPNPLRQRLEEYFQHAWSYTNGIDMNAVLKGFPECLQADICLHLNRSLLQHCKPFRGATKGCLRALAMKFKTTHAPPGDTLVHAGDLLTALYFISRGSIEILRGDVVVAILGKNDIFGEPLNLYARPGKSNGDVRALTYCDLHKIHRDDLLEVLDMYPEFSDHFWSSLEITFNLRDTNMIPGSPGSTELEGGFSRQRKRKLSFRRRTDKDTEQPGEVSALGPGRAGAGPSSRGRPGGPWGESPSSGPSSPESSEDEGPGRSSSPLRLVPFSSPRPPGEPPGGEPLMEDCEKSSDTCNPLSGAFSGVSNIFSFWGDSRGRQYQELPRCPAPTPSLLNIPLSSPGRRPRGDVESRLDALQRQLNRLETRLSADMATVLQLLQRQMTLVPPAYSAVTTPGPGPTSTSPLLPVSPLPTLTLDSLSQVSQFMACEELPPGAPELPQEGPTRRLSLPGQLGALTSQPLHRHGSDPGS
Description: This assay is employed as a screen to assess potential risks for QT interval prolongation.

Sprague-Dawley rats = assay: Maximum tolerated dose followed by 7-day repeat-dose toxicology in rats (Study 700040); type: in vivo; details: rat
Description: The study consisted of 2 parts. […] The doses used in part 1 were 15, 30, 50, 65, and 75 mg/kg. Each subsequent dose was administered following at least 24 hours from the commencement of the previous dose. There were 2 males and 2 females in each dose group.
During Phase I, assessments of mortality, clinical signs and body weights were performed. […] The necropsy consisted of an external examination, including reference to all clinically-recorded lesions, as well as a detailed internal examination.
During Phase 2, assessments of mortality, clinical signs and body weights were performed. Following dosing, all animals were euthanized and subjected to a necropsy examination on Day 8. The necropsy consisted of an external examination, including reference to all clinically-recorded lesions, as well as a detailed internal examination. Study plan specific tissues/organs were collected and retained, then trimmed and preserved promptly once the animal was euthanized but these were not further examined microscopically.

[2] = tested on: Chinese hamster ovary (CHO)-K1 cells; assay: In vitro micronucleus test (flow cytometry); type: cell-based
Description: The treatment with the vehicle/negative and positive controls was concurrently performed.

[3] = tested on: Salmonella typhimurium tester strains TA98, TA100, TA1535, and TA1537; assay: Bacterial Reverse Mutation Test (Ames test), S. typhimurium; details: for cytotoxicity: 5000 μg/plate
[4] = intranasal 75 mg/kg for 7 consecutive days

In the case of `COc1ccc2[nH]cc(CCN(C)C)c2c1.Cl` [5MeODMT Hydrochloride, lot 20/20/126-FP, 5MeODMT Hydrochloride], the “state of material upon completion of the DVS cycle” value ([1]; 0-90% RH cycles) is reported as “completed deliquesced”, the moisture uptake ([1]; 25° C., 0-70% RH) is reported as “less than 0.3 % w/w” and the moisture uptake ([1]; 25° C., first sorption cycle, 70-80% RH) is reported as “Approximately 23 w/w”. For the same compound, the “mass above the minimum recorded at 0% RH after subsequent cycles (retention of moisture)” value ([1]; 25° C., subsequent sorption and desorption cycles) was 6-9 % w/w and the further moisture uptake ([1]; 25° C., up to and when held at 90% RH) was 20 % w/w.
For `COc1ccc2[nH]cc(CCN(C)C)c2c1` [5MeODMT, 5-methoxy-N,N-dimethyltryptamine], the inhibition at 30 µM (hERG) was 77.8 ± 7.4%, the body weight gain (Sprague-Dawley rats; [4]) was “slightly suppressed for both sexes” and the “macroscopic observation: dark/pale area of the lungs” value (Sprague-Dawley rats; [4]) was 2/10. For the same compound, the mortality (Sprague-Dawley rats; [4]) was “no mortalities”, the tolerability (Sprague-Dawley rats; [4]) was “tolerated” and the clinical signs (Sprague-Dawley rats; single intranasal 15-75 mg/kg) was “incoordination, shallow or increased respiration, sneezing, salivation, decreased activity, piloerection, white pasty material around penis (for males), ptosis, laying on the cage floor, and sensitive to touch and shaking”. For the same compound, the “mortality and gross pathology” value (Sprague-Dawley rats; single intranasal 15-75 mg/kg) was “no mortality and gross pathology findings at any dose”, the “time to resolution of most clinical signs post dose” value (Sprague-Dawley rats; single intranasal 15-75 mg/kg) was at most 1 h and the tolerability (Sprague-Dawley rats; single intranasal, dose levels up to 75 mg/kg) was “tolerated”. The body weight gain (Sprague-Dawley rats; single intranasal, females at 75 mg/kg) was “slightly suppressed”, the “chromosome-damaging potential (conclusion)” value ([2]; CHO-K1 cells) was “no chromosome-damaging potential” and the cytotoxicity or precipitation ([2]; up to 300 μg/mL, all treatment periods) was “No cytotoxicity or precipitation”. The cytotoxicity ([3]; absence of S9 mix) was “higher levels of cytotoxicity”, the cytotoxicity ([3]; presence of S9 mix) was “remained slight” and the “revertant colonies in repeated test” value ([3]; TA1537 and TA98, absence of S9 mix, 15-2000 μg per plate) was “no increases in the revertant colonies number per plate”. For the same compound, the “mutagenic potential (conclusion)” value ([3]; all bacteria strains tested, absence or presence of S9) was “no mutagenic potential”.
In the case of `COc1ccc2[nH]cc(CCN(C)C)c2c1.Cl` [5MeODMT Hydrochloride, lot 20/45/006-FP, 5MeODMT Hydrochloride], the moisture increase ([1]; 70-75% RH) is reported as “ca. 0.46 % w/w”, the further moisture uptake ([1]; 75-80% RH) is reported as “ca. 7%” and the further moisture uptake ([1]; 80-85%) is reported as “ca. 40%”. For the same compound, the stability towards humidity ([1]; DVS) was “robustness between 0-75% RH” and the “state of solids post DVS analysis” value ([1]; modified DVS up to 85% RH, likely occurred above 80% RH) was “Complete deliquescence”.
